Data from paper PMC8760490, “Discovery of novel furanylbenzamide inhibitors that target oncogenic tyrosine phosphatase SHP2 in leukemia cells” (The Journal of Biological Chemistry, 2021).
Where two headings read alike, the source gives them in different places.

Tested on: MOLM-13 AML cells
Assay: Cell viability (CellTiter-Glo), MOLM-13
Assay type: cell-based
Conditions: Homo sapiens
Method: Inhibition of SHP2 has been reported to inhibit the growth of cancer cells including Kasumi-1 acute myeloid leukemia (AML) and KYSE-520 esophageal cancer cells ([30]). […] Thus, we treated two TNBC cell lines, BT-549 and MDA-MB-468, with SBI-4668 or the SHP2 allosteric inhibitor SHP099 at various concentrations and determined cell viability after 72 h, compared with the vehicle control (Fig. 4C). […] Next, we performed an 11-day colony formation assay with TNBC cells treated with SBI-4668 or SHP099 at 5, 10, or 20 μM (Fig. 4D).
Finally, we evaluated the selectivity of our top two compounds, SBI-2130 and SBI-4668, on MOLM-13 AML cells in which SHP2 was depleted using CRISPR–Cas9 KO. High-efficiency Cas9-editing MOLM-13 cells were generated by transducing MOLM-13 cells with a Cas9 lentiviral construct. Stable clones were tested for editing efficiency by performing tracking of indels by decomposition analysis ([45]), and these MOLM-13-Cas9 cells were transduced with a lentiviral construct containing an AAVS1 single-guide RNA (sgRNA) and an mCherry reporter for bulk sorting of cells with successful AAVS1 editing. SHP2 KO was achieved by transducing MOLM-13-Cas9-mCherry cells with a lentivirus, containing SHP2 dual sgRNAs, resulting in ∼80% reduction of SHP2 protein levels (Fig. 4G). SBI-2130, SBI-4668, and the SHP2 allosteric inhibitor, SHP099, were tested in parallel on regular MOLM-13 cells (expressing WT SHP2) and MOLM-13-Cas9-mCherry cells with SHP2 KO. Cells were treated with inhibitors at various concentrations (ranging from 30 μM to 58 nM) or vehicle control (DMSO) for 72 h, before cell viability was assessed.
Viability of AML and esophageal carcinoma cells was assessed using the ATP-depletion assay CellTiter-Glo (Promega). Cells were harvested at 1 × 10^6/ml to 2 × 10^6 cells/ml with cell numbers determined by trypan blue using the Countess Cell counter (Thermo Scientific) and resuspended in culture media. About 3000 cells (in 20 μl) were seeded in a 384-well format white and clear-bottom microplate (catalog no.: 781098; Greiner) spotted with test compound or vehicle control (DMSO) using an Echo 555 Liquid Handler. […] Luminescence was read on a Tecan Spark Multimode Microplate Reader, and data were analyzed using GraphPad Prism software.
For SHP2 KO, dual sgRNAs targeting SHP2 were cloned in the pLentiGuide puro vector (Addgene plasmid no. 52963 from Dr Feng Zhang) using a published protocol ([50]). […] SHP2 KO was evaluated by immunoblotting. […] For SHP2 KO, MOLM-13-Cas9-mCherry cells were seeded in nontreated 6-well plates (2 × 10^6 cells/well in 2.5 ml), with cell numbers determined by trypan blue using the Countess Cell Counter (Thermo Scientific). […]

[1] = 72 h, 30 μM to 58 nM, regular MOLM-13 expressing WT SHP2 (Fig. 4G), read-out: MOLM-13 cell viability IC50 (parallel to SHP2 KO)

Row | SMILES | IC50 [1] [µM] | IC50 (MOLM-13, 72 h, 3 days in culture (Fig. 4B), read-out: MOLM-13 cell viability IC50) [µM]
1 | Nc1ccc(NC(=O)c2cc(-c3ccc(/C=C4\Sc5ccccc5C4=O)o3)ccc2O)cc1 [SBI-2130, (Z)-N-(4-Aminophenyl)-2-hydroxy-5-(5-((3-oxobenzo[b]thiophen-2(3H)-ylidene)methyl)furan-2-yl)benzamide] | 7.6 | –
2 | O=C(Nc1ccccc1)c1cc(-c2ccc(/C=C3\Sc4ccccc4C3=O)o2)ccc1O [SBI-4668, (Z)-2-Hydroxy-5-(5-((3-oxobenzo[b]thiophen-2(3H)-ylidene)methyl)furan-2-yl)-N-phenylbenzamide] | 15 | 12
